Assay results taken from ChEMBL document CHEMBL5291721, “A preclinical secondary pharmacology resource illuminates target-adverse drug reaction associations of marketed drugs” (Nat Commun, 2023).

Legend:
[1] = biological target: T1, D(1A) dopamine receptor (Homo sapiens, UniProt P21728)
[2] = biological target: T2, Androgen receptor (Homo sapiens, UniProt P10275)
T2 sequence (P10275 whole entry): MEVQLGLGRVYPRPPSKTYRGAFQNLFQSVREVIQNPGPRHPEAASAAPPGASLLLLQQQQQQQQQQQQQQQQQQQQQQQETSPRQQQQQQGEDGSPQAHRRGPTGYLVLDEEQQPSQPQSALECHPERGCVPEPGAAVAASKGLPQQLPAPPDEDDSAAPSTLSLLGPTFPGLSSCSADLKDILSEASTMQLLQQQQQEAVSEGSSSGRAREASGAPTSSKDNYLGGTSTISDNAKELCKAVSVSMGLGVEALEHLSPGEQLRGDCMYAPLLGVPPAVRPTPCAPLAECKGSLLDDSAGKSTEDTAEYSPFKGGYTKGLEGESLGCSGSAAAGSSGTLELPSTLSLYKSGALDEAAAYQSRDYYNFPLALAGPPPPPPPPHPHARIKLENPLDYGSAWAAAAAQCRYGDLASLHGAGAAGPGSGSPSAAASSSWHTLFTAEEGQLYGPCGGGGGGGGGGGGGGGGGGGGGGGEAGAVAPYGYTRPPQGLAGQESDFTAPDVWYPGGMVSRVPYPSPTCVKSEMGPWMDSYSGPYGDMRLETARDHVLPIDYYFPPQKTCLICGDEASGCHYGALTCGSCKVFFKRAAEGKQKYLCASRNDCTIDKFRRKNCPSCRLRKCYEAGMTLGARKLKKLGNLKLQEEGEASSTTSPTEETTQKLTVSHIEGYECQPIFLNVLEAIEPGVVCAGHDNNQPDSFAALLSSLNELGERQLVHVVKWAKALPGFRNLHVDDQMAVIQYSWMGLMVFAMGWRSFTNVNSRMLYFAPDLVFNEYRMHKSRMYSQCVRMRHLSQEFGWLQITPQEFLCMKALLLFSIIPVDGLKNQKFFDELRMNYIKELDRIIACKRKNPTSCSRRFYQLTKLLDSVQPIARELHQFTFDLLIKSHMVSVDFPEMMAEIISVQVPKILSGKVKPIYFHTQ

[3] = biological target: Gamma-aminobutyric acid receptor subunit alpha-1/alpha-2/beta-2/gamma-2 (Homo sapiens, UniProt P14867+P18507+P47869+P47870); format: protein-complex assay
Gamma-aminobutyric acid receptor subunit alpha-1/alpha-2/beta-2/gamma-2, sequence (P14867 whole entry): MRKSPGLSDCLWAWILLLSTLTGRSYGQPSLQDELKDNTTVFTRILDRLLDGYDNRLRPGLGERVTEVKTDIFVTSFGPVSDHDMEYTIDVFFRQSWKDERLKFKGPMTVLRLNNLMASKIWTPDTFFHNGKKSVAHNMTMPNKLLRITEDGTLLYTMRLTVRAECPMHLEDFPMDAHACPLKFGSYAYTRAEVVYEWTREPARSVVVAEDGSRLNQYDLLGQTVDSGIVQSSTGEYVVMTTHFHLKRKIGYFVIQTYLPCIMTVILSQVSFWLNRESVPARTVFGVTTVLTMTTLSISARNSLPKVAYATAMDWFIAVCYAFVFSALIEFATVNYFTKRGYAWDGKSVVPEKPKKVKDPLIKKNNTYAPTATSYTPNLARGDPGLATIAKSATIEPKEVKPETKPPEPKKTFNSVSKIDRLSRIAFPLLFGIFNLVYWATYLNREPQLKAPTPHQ
Gamma-aminobutyric acid receptor subunit alpha-1/alpha-2/beta-2/gamma-2, sequence (P47870 whole entry): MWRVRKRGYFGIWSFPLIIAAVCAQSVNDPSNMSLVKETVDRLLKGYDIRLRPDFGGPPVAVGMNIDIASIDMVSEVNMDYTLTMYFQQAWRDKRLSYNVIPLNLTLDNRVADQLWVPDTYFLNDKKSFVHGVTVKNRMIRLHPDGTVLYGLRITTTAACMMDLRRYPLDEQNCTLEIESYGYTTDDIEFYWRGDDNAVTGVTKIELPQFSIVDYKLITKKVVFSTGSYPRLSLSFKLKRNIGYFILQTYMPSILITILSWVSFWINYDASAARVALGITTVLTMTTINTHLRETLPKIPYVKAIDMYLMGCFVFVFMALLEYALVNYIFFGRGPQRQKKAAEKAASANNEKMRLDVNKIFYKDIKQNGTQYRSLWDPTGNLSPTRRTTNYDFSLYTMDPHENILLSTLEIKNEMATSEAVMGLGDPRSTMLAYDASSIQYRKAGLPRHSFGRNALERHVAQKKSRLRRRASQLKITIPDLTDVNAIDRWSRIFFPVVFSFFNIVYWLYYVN
Gamma-aminobutyric acid receptor subunit alpha-1/alpha-2/beta-2/gamma-2, sequence (P18507 whole entry): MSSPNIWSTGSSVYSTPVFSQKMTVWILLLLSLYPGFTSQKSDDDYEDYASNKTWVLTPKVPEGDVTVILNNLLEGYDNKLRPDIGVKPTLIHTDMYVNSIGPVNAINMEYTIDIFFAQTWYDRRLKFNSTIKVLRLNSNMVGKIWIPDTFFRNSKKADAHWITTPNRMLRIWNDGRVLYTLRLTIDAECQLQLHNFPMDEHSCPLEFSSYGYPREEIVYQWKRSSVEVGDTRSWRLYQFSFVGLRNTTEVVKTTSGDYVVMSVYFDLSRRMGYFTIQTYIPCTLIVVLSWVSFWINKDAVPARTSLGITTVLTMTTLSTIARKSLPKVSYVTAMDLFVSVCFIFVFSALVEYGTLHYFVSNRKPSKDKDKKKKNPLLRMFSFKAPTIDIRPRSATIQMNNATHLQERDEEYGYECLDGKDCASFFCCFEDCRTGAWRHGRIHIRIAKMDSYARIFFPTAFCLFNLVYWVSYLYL
Gamma-aminobutyric acid receptor subunit alpha-1/alpha-2/beta-2/gamma-2, sequence (P47869 whole entry): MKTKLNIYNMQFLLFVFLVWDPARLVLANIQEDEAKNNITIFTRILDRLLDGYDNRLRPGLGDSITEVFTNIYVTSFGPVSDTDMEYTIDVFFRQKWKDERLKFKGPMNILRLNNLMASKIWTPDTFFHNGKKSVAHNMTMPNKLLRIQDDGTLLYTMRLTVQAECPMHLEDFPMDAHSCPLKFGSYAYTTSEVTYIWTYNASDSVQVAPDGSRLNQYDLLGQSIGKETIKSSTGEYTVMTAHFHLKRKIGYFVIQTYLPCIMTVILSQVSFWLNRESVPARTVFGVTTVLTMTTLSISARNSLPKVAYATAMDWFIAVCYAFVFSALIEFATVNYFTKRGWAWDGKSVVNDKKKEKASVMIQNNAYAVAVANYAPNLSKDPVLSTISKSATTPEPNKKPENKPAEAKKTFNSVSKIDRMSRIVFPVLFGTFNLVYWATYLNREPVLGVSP

[4] = biological target: T3, Muscarinic acetylcholine receptor M1 (Homo sapiens, UniProt P11229); format: functional, cell-based
T3 sequence (P11229 whole entry): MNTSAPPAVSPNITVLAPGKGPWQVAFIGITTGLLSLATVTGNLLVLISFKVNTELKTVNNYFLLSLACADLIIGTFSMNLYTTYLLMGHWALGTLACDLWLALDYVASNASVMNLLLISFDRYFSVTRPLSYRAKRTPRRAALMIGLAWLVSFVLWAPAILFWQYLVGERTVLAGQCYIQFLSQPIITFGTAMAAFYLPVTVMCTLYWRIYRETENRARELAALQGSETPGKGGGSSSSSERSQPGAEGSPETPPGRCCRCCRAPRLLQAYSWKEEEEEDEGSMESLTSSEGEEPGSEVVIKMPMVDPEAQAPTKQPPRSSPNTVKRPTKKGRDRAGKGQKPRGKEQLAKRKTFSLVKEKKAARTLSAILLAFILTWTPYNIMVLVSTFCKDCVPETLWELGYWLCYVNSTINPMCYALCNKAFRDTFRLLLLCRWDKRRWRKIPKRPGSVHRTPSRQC

[5] = biological target: Glutamate receptor ionotropic, NMDA 1 (Rattus norvegicus, UniProt P35439)
[6] = biological target: T1, D(1A) dopamine receptor; format: functional, cell-based
[7] = biological target: Gamma-aminobutyric acid receptor subunit alpha-1 (Rattus norvegicus, UniProt P62813)
Gamma-aminobutyric acid receptor subunit alpha-1, sequence (P62813 whole entry): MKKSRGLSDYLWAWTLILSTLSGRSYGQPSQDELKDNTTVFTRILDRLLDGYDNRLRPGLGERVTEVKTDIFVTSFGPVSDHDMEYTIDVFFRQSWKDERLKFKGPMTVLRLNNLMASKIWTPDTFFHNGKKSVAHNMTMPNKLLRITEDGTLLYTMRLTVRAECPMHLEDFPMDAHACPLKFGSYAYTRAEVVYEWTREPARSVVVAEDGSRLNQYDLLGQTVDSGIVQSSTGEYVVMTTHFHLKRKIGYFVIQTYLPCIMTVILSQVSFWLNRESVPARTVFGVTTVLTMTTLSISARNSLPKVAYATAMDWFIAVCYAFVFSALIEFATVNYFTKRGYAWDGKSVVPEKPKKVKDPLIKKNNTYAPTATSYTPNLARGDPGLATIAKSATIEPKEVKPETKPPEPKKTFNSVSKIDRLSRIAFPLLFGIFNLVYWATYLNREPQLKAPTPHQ

[8] = biological target: cGMP-inhibited 3',5'-cyclic phosphodiesterase 3A (Homo sapiens, UniProt Q14432); format: functional
cGMP-inhibited 3',5'-cyclic phosphodiesterase 3A, sequence (Q14432 whole entry): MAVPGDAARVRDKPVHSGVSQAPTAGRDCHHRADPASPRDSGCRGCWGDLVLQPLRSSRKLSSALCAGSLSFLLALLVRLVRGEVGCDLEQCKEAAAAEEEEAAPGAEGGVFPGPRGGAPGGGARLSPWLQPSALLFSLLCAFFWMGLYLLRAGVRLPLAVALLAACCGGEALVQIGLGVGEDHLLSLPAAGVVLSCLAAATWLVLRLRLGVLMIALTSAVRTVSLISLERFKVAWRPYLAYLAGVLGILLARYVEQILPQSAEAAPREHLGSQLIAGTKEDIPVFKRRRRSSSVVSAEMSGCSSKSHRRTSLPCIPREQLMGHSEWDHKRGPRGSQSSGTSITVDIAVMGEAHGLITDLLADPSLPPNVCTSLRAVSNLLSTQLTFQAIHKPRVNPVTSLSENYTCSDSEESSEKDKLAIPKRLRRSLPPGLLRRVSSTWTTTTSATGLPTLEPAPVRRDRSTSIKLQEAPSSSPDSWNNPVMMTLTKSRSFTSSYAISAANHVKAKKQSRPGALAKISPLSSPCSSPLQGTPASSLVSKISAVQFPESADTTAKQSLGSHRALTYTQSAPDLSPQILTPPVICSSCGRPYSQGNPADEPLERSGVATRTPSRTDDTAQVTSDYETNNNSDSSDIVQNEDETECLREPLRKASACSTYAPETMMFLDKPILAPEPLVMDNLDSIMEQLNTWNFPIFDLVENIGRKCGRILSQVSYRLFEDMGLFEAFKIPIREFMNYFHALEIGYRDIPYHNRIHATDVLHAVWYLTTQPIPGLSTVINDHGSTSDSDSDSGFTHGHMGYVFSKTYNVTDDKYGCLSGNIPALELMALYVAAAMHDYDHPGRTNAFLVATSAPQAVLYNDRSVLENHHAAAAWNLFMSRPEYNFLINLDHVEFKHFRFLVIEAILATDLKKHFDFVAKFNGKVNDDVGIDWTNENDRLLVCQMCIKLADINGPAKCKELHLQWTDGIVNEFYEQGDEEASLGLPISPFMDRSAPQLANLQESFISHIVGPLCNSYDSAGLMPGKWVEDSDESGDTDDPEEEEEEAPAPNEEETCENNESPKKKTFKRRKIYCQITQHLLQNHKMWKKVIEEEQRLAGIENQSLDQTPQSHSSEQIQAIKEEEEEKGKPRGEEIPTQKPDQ

[9] = biological target: T4, 5-hydroxytryptamine receptor 3A (Homo sapiens, UniProt P46098); format: functional
T4 sequence (P46098 whole entry): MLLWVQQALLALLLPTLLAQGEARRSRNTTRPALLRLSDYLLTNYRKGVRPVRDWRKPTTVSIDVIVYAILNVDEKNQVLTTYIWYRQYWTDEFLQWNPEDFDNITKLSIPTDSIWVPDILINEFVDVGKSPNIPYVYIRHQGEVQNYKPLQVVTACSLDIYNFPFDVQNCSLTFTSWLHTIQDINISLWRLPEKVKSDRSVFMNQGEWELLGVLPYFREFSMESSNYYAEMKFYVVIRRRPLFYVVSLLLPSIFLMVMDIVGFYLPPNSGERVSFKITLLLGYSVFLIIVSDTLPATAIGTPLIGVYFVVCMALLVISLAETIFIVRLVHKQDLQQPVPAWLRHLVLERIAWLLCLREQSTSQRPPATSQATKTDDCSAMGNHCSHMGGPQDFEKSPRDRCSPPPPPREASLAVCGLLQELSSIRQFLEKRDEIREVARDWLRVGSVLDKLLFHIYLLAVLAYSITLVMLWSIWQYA

[10] = biological target: T3, Muscarinic acetylcholine receptor M1; format: functional, cell-based; remark: listed apart in the source
[11] = biological target: Sodium-dependent dopamine transporter (Homo sapiens, UniProt Q01959)
Sodium-dependent dopamine transporter, sequence (Q01959 whole entry): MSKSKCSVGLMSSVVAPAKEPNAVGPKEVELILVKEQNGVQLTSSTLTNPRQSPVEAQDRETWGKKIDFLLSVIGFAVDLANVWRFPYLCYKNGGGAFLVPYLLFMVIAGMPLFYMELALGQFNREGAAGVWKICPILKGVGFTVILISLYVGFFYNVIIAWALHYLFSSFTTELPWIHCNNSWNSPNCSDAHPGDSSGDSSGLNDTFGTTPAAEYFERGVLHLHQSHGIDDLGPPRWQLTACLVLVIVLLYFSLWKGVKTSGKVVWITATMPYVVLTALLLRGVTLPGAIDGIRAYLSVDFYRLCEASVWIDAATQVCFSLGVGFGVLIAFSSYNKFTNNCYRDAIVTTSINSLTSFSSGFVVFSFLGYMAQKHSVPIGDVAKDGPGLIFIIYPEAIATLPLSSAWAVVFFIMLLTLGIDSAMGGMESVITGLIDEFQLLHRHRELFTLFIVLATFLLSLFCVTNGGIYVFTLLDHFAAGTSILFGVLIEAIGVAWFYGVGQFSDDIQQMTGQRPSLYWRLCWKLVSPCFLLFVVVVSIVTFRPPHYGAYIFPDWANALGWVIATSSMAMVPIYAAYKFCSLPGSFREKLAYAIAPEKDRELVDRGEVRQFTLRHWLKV

[12] = biological target: Melanocortin receptor 3 (Homo sapiens, UniProt P41968)
Melanocortin receptor 3, sequence (P41968 whole entry): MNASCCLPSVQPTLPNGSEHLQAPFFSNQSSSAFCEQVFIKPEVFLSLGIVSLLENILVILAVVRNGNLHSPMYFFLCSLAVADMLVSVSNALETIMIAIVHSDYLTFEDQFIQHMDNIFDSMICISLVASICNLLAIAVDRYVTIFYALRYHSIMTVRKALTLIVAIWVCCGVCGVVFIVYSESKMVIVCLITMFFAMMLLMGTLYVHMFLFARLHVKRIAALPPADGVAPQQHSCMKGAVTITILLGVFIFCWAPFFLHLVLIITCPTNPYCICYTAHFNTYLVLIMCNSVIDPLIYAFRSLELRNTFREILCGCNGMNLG

[13] = biological target: Adenosine receptor A2a (Homo sapiens, UniProt P29274)
Further: assay procedure not described here.

T1 sequence (P21728 whole entry): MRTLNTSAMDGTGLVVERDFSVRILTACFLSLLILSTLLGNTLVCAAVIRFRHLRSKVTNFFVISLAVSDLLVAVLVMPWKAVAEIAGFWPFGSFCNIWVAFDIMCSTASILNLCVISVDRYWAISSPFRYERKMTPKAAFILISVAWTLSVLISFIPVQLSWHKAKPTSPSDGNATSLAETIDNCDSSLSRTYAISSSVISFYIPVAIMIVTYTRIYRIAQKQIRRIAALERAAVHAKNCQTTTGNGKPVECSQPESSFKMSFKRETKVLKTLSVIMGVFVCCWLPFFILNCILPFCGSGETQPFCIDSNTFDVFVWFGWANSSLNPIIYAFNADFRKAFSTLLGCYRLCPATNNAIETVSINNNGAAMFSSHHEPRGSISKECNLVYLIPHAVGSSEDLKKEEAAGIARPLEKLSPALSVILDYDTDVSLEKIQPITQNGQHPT

For OCc1ccccc1 [BENZYL ALCOHOL], the AC50 [1] was > 30 µM, the AC50 [2] was > 30 µM and the AC50 [3] was > 30 µM.

CC(NCCC(c1ccccc1)c1ccccc1)c1ccccc1 (stereo not drawn) [FENDILINE] was tested, and the AC50 [1] was 21.7 µM, the AC50 [2] was > 30 µM and the AC50 [3] was > 10 µM. It also gave an AC50 [4] of 26.7 µM.

With COc1ccc(C(=O)c2ccccc2)c(O)c1 [OXYBENZONE] the AC50 [5] was > 30 µM, the AC50 [6] was > 30 µM and the AC50 [1] was > 30 µM. The AC50 [7] was > 30 µM, the AC50 [2] was > 30 µM and the AC50 [8] was > 30 µM. The AC50 [9] was > 30 µM, the AC50 [10] was > 10 µM and the AC50 [4] was > 30 µM.

With COC(=O)Nc1nc2cc(C(=O)c3ccc(F)cc3)ccc2[nH]1 [FLUBENDAZOLE] the AC50 [1] was > 30 µM, the AC50 [2] was > 30 µM and the AC50 [3] was > 30 µM.

CC(C)(Oc1ccc(C(=O)c2ccc(Cl)cc2)cc1)C(=O)O [FENOFIBRIC ACID] was tested, and the AC50 [1] was > 30 µM, the AC50 [2] was > 30 µM and the AC50 [3] was > 30 µM. The AC50 [10] was > 30 µM and the AC50 [4] was > 30 µM.

Oc1ccc(OCc2ccccc2)cc1 [MONOBENZONE] was tested, and the AC50 [1] was > 30 µM, the AC50 [2] was > 30 µM and the AC50 [3] was > 30 µM.

For CN1C(C(=O)Nc2ccccn2)=C(OC(=O)/C=C/c2ccccc2)c2ccccc2S1(=O)=O [PIROXICAM CINNAMATE], the AC50 [1] was > 30 µM, the AC50 [2] was > 30 µM and the AC50 [3] was > 30 µM. For the same molecule, the AC50 [10] was > 30 µM and the AC50 [4] was > 30 µM.

For COCC(=O)O[C@]1(CCN(C)CCCc2nc3ccccc3[nH]2)CCc2cc(F)ccc2[C@@H]1C(C)C [MIBEFRADIL], the AC50 [1] was 10.1 µM, the AC50 [7] was > 30 µM and the AC50 [2] was > 30 µM. The AC50 [3] was > 10 µM, the AC50 [10] was > 3 µM and the AC50 [4] was 17.7 µM.

Cc1ccc2c([nH]c(=O)c3c(=O)cc(C(=O)OCCC(C)C)oc32)c1C was tested, and the AC50 [1] was > 30 µM, the AC50 [2] was > 30 µM and the AC50 [3] was > 10 µM. For the same molecule, the AC50 [10] was > 30 µM and the AC50 [4] was > 30 µM.

COC(=O)N[C@H](C(=O)N1CC2(CC2)C[C@H]1c1ncc(-c2ccc3c(c2)C(F)(F)c2cc(-c4ccc5nc([C@@H]6[C@H]7CC[C@H](C7)N6C(=O)[C@@H](NC(=O)OC)C(C)C)[nH]c5c4)ccc2-3)[nH]1)C(C)C was tested, and the AC50 [1] was > 30 µM, the AC50 [2] was > 10 µM and the AC50 [3] was > 30 µM. For the same molecule, the AC50 [10] was > 30 µM and the AC50 [4] was > 30 µM.

For CO[C@H]1/C=C/O[C@@]2(C)Oc3c(C)c(O)c4c(c3C2=O)C2=NC3(CCN(CC(C)C)CC3)NC2=C(NC(=O)/C(C)=C\C=C\[C@H](C)[C@H](O)[C@@H](C)[C@@H](O)[C@@H](C)[C@H](OC(C)=O)[C@@H]1C)C4=O [RIFABUTIN], the AC50 [1] was > 30 µM, the AC50 [2] was > 30 µM and the AC50 [3] was > 30 µM.

Cc1cn(-c2cc(NC(=O)c3ccc(C)c(Nc4nccc(-c5cnccn5)n4)c3)cc(C(F)(F)F)c2)cn1 [RADOTINIB] was tested, and the AC50 [11] was > 30 µM, the AC50 [12] was > 30 µM and the AC50 [13] was > 30 µM. For the same molecule, the AC50 [1] was > 30 µM, the AC50 [2] was > 30 µM and the AC50 [3] was > 30 µM. The AC50 [8] was 30 µM, the AC50 [10] was > 30 µM and the AC50 [4] was > 30 µM.

COC(=O)N(C)c1c(N)nc(-c2nn(Cc3ccccc3F)c3ncccc23)nc1N [RIOCIGUAT] was tested, and the AC50 [1] was > 30 µM, the AC50 [2] was > 30 µM and the AC50 [3] was > 30 µM. The AC50 [10] was > 30 µM and the AC50 [4] was > 30 µM.

C[C@@H]1O[C@@H](O[C@H]2C[C@@H](O)[C@]3(CO)[C@H]4[C@H](O)C[C@]5(C)[C@@H](C6=CC(=O)OC6)CC[C@]5(O)[C@@H]4CC[C@]3(O)C2)[C@H](O)[C@H](O)[C@H]1O [OUABAIN] was tested, and the AC50 [1] was > 30 µM, the AC50 [2] was > 30 µM and the AC50 [3] was > 30 µM.

In the case of CC(C)N1CCOC(c2cccc(C(F)(F)F)c2)C1 (stereo not drawn) [OXAFLOZANE], the AC50 [1] is reported as > 30 µM, the AC50 [2] is reported as > 30 µM and the AC50 [3] is reported as > 30 µM. For the same molecule, the AC50 [10] was > 30 µM and the AC50 [4] was > 30 µM.
